We go through 7 cell lines from the supplement of paper PMC10307832.

What all share (assay): relative viability (nuclei count vs DMSO), 5 days (fraction); higher = more cells survive
Compound in experiment [1]: C(C(=O)C(=O)O)Br [Bromopyruvate] + CC(C)C[C@H](NC(=O)[C@H](Cc1ccccc1)NC(=O)c1cnccn1)B(O)O [Bortezomib] (partner 0.002 µM)
The method, boiled down: (§1)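 Five library-drug doses in √10 steps were combined with a fixed anchor-drug dose, or a single drug was given alone, by pin tool to lung cancer cell lines in 1536-well plates the day after seeding. Nuclei were stained and counted after 5 days. Relative viability is the nuclei count in treated wells over that in vehicle wells, taken as the median of duplicate plates.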

Compound in experiment [2]: C(C(=O)C(=O)O)Br [Bromopyruvate] + CS(=O)(=O)N1CCN(Cc2cc3nc(-c4cccc5[nH]ncc45)nc(N4CCOCC4)c3s2)CC1 [Pictilisib] (partner 1 µM)
The method, boiled down: as §1

Compound in experiment [3]: C(C(=O)C(=O)O)Br [Bromopyruvate] + O=C(c1cc(Cc2n[nH]c(=O)c3ccccc23)ccc1F)N1CCN(C(=O)C2CC2)CC1 [Olaparib] (partner 8 µM)
Summed up:
as §1

Compound in experiment [4]: CC(O)(CS(=O)(=O)c1ccc(F)cc1)C(=O)Nc1ccc(C#N)c(C(F)(F)F)c1 [Bicalutamide] + Cc1nc(Nc2ncc(C(=O)Nc3c(C)cccc3Cl)s2)cc(N2CCN(CCO)CC2)n1 [Dasatinib] (partner 0.075 µM)
Summed up: as §1

On to Calu-6, for which the relative viability in experiment [1] (first compound 1 µM) was determined as 1.09; in experiment [1] (first compound 3.162 µM), 1.05; in experiment [1] (first compound 10 µM) it was 1.07; in experiment [1] (first compound 31.62 µM), 0.993; in experiment [1] (first compound 100 µM), 0.903; in experiment [2] (first compound 1 µM), 0.898. In addition, the relative viability was 0.958 in experiment [2] (first compound 3.162 µM); 0.966 in experiment [2] (first compound 10 µM); 0.743 in experiment [2] (first compound 31.62 µM); 0.829 in experiment [2] (first compound 100 µM); 0.579 in experiment [3] (first compound 1 µM); 0.581 in experiment [3] (first compound 3.162 µM). For the same cell line, the values for the relative viability in experiment [3] (first compound 10 µM), in experiment [3] (first compound 31.62 µM) and in experiment [3] (first compound 100 µM) were 0.686, 0.55 and 0.417, respectively.
Consider ChaGo-K-1, for which the relative viability was 1.08 in experiment [1] (first compound 1 µM); 1.02 in experiment [1] (first compound 3.162 µM); 1.01 in experiment [1] (first compound 10 µM); 1.07 in experiment [1] (first compound 31.62 µM); 0.953 in experiment [1] (first compound 100 µM); 0.978 in experiment [2] (first compound 1 µM). In addition, the relative viability is 0.766 in experiment [2] (first compound 3.162 µM); 0.581 in experiment [2] (first compound 10 µM); 0.685 in experiment [2] (first compound 31.62 µM); 0.622 in experiment [2] (first compound 100 µM); 0.417 in experiment [3] (first compound 1 µM); 0.466 in experiment [3] (first compound 3.162 µM). Besides, the relative viability in experiment [3] (first compound 10 µM) was determined as 0.431; in experiment [3] (first compound 31.62 µM), 0.344; in experiment [3] (first compound 100 µM) it was 0.301; in experiment [4] (first compound 0.08 µM) it was 0.613; in experiment [4] (first compound 0.253 µM), 0.557; in experiment [4] (first compound 0.8 µM), 0.561. Besides, the relative viability in experiment [4] (first compound 2.53 µM) was determined as 0.542.
On to EBC-1, for which the relative viability in experiment [1] (first compound 1 µM) stood at 0.527; in experiment [1] (first compound 3.162 µM) it was 0.67; in experiment [1] (first compound 10 µM), 0.56; in experiment [1] (first compound 31.62 µM), 0.574; in experiment [1] (first compound 100 µM), 0.511; in experiment [2] (first compound 1 µM) it was 0.374. The relative viability in experiment [2] (first compound 3.162 µM) stood at 0.467; in experiment [2] (first compound 10 µM) it was 0.412; in experiment [2] (first compound 31.62 µM), 0.42; in experiment [2] (first compound 100 µM) it was 0.415; in experiment [3] (first compound 1 µM) it was 0.691; in experiment [3] (first compound 3.162 µM), 0.594. Moreover, the values for the relative viability in experiment [3] (first compound 10 µM), in experiment [3] (first compound 31.62 µM) and in experiment [3] (first compound 100 µM) were 0.741, 0.617 and 0.564, respectively.
For the cell line EKVX, the relative viability in experiment [1] (first compound 1 µM) stood at 1.08; in experiment [1] (first compound 3.162 µM), 0.993; in experiment [1] (first compound 10 µM) it was 1.12; in experiment [1] (first compound 31.62 µM), 1.11; in experiment [1] (first compound 100 µM) it was 1.1; in experiment [2] (first compound 1 µM), 0.412. Further, the relative viability in experiment [2] (first compound 3.162 µM) was 0.437; in experiment [2] (first compound 10 µM), 0.444; in experiment [2] (first compound 31.62 µM) it was 0.458; in experiment [2] (first compound 100 µM) it was 0.472; in experiment [3] (first compound 1 µM), 0.73; in experiment [3] (first compound 3.162 µM) it was 0.87. Further, the relative viability in experiment [3] (first compound 10 µM) was 0.843; in experiment [3] (first compound 31.62 µM), 0.861; in experiment [3] (first compound 100 µM), 0.874; in experiment [4] (first compound 0.08 µM), 0.619; in experiment [4] (first compound 0.253 µM), 0.491; in experiment [4] (first compound 0.8 µM), 0.662. The relative viability in experiment [4] (first compound 2.53 µM) was determined as 0.66.
On to EMC-BAC-2, for which the relative viability in experiment [1] (first compound 1 µM) came to 0.99; in experiment [1] (first compound 3.162 µM), 1.14; in experiment [1] (first compound 10 µM) it was 1.2; in experiment [1] (first compound 31.62 µM), 1.02; in experiment [1] (first compound 100 µM), 1.12; in experiment [2] (first compound 1 µM) it was 0.472. Moreover, the relative viability in experiment [2] (first compound 3.162 µM) came to 0.557; in experiment [2] (first compound 10 µM), 0.572; in experiment [2] (first compound 31.62 µM) it was 0.539; in experiment [2] (first compound 100 µM), 0.622; in experiment [3] (first compound 1 µM), 0.499; in experiment [3] (first compound 3.162 µM), 0.481. Also, the relative viability amounted to 0.408 in experiment [3] (first compound 10 µM); 0.516 in experiment [3] (first compound 31.62 µM); 0.458 in experiment [3] (first compound 100 µM); 0.347 in experiment [4] (first compound 0.08 µM); 0.287 in experiment [4] (first compound 0.253 µM); 0.33 in experiment [4] (first compound 0.8 µM). Further, the relative viability in experiment [4] (first compound 2.53 µM) was 0.298.
Consider EPLC-272H, for which the relative viability in experiment [1] (first compound 1 µM) came out at 0.844; in experiment [1] (first compound 3.162 µM) it was 0.952; in experiment [1] (first compound 10 µM), 1.03; in experiment [1] (first compound 31.62 µM) it was 0.862; in experiment [1] (first compound 100 µM), 1.08; in experiment [2] (first compound 1 µM), 0.32. Also, the relative viability in experiment [2] (first compound 3.162 µM) is 0.363; in experiment [2] (first compound 10 µM), 0.266; in experiment [2] (first compound 31.62 µM) it was 0.323; in experiment [2] (first compound 100 µM), 0.296; in experiment [3] (first compound 1 µM), 0.783; in experiment [3] (first compound 3.162 µM) it was 0.885. In addition, the relative viability in experiment [3] (first compound 10 µM) worked out at 0.971; in experiment [3] (first compound 31.62 µM) it was 0.932; in experiment [3] (first compound 100 µM) it was 0.699; in experiment [4] (first compound 0.08 µM) it was 0.375; in experiment [4] (first compound 0.253 µM), 0.336; in experiment [4] (first compound 0.8 µM), 0.454. Besides, in experiment [4] (first compound 2.53 µM), the relative viability was determined as 0.321.
Turning to H3255, the relative viability in experiment [1] (first compound 1 µM) came out at 0.877; in experiment [1] (first compound 3.162 µM), 0.723; in experiment [1] (first compound 10 µM), 0.981; in experiment [1] (first compound 31.62 µM), 0.719; in experiment [1] (first compound 100 µM), 0.892; in experiment [2] (first compound 1 µM), 0.479. Moreover, the relative viability in experiment [2] (first compound 3.162 µM) came to 0.503; in experiment [2] (first compound 10 µM), 0.45; in experiment [2] (first compound 31.62 µM), 0.519; in experiment [2] (first compound 100 µM) it was 0.588; in experiment [3] (first compound 1 µM), 0.579; in experiment [3] (first compound 3.162 µM) it was 0.591. For the same cell line, the relative viability in experiment [3] (first compound 10 µM) was found to be 0.558; in experiment [3] (first compound 31.62 µM), 0.563; in experiment [3] (first compound 100 µM), 0.571; in experiment [4] (first compound 0.08 µM), 0.491; in experiment [4] (first compound 0.253 µM) it was 0.39; in experiment [4] (first compound 2.53 µM) it was 0.359.
